The results in this text go back to US10881704B2, “Usage of semen Ziziphi spinosae oil in the treatment of medicinal insomnia” (SHIJIAZHUANG YILING PHARMACEUTICAL CO., LTD., priority 2016, dated 2021).

One data set concerns mouse bone marrow cell. As to conditions: 60 mg/kg positive control; for Number of Micronucleus-containing PCEs: 5000 PCEs tested. How it is done:
The mice were given the samples every 24 h. […] They were executed at 6 h after the last gavage of sample, with the sternal bone marrow taken, prepared into slides, fixed in methanol and stained with Giemsa.
3.4.3 Outcome measure: During the microscopy, 1,000 polychromatic erythrocytes (PCE) were counted for each animal to calculate the micronucleus rate (MN‰).

A further data set relates to Kunming mice. Nature of the data set: Length of sodium pentobarbital-induced sleep of mice with medicinal insomnia (ephedrine, prednisone). It is filed as in vivo. As to conditions: sodium pentobarbital 50 mg/kg ip. The procedure:
Kunming mice, male, 18-22 g in weight;
60 mice were taken and placed into the laboratory for one week for acclimatization. Then they were randomly divided into 6 groups and dosed according to the drug and dosage in the table.
The investigational drug and insomnia-induced drugs were proportionally prepared into soybean oil solutions as investigational products, which were administered with via intragastric gavage with the intragastric volume calculated by 0.1 mL per 10 g body weight. The blank group was directly given soybean oil via intragastric gavage once daily, for consecutive 7 days. Mice were fasted at 8 h prior to the last dosing and given sodium pentobarbital (50 mg/kg) via intraperitoneal injection at 30 min after dosing, at the indoor temperature of 20° C. and the humidity of 40%. Measurements were made by using the righting reflex tester, the absence of righting reflex over 1 min was deemed as falling asleep, and the absence time and recovery time of righting reflex were observed and recorded. The duration from the absence of righting reflex to its recovery was the length of sleep.

A further data set relates to mouse sperm. Description: Mouse sperm malformation test. To be noted: 2.0 mg/kg positive control.
The nature of data set [1]: GC fingerprint: study on the sample stability. The format is physicochemical. As to conditions: Semen Ziziphi Spinosae oil sample 2 test solution; for Relative peak area, RSD (%) / Relative retention time, RSD (%): RSD over 0-12 h; for Relative peak area, Mean / Relative retention time, Mean: mean over 0-12 h; for Relative peak area, standing time 0 / Relative retention time, standing time 0: tested at 0 h; for Relative peak area, standing time 0 / Relative retention time, standing time 0 / Relative peak area, standing time 3 / Relative retention time, standing time 3 / Relative peak area, standing time 6 / Relative retention time, standing time 6 / Relative peak area, standing time 9 / Relative retention time, standing time 9 / Relative peak area, standing time 12 / Relative retention time, standing time 12: GC; for Relative peak area, standing time 3 / Relative retention time, standing time 3: tested at 3 h; for Relative peak area, standing time 6 / Relative retention time, standing time 6: tested at 6 h; for Relative peak area, standing time 9 / Relative retention time, standing time 9: tested at 9 h; for Relative peak area, standing time 12 / Relative retention time, standing time 12: tested at 12 h. The procedure: Take 0.4 g of test sample, place into a 50 mL flask, add 6 mL of sodium hydroxide-methanol solution, and then connect with condenser water bath, and recirculate until the oil drops disappear, and slowly shake the flask every 30 sec to avoid solids formed by sodium hydroxide from being adhered onto the flask wall; recirculate 10 min, add 7 mL of boron trifluoride-methanol solution into the boiled solution through the top of the condenser using a pipette, boil for another 3 min, add 5 mL of isooctane into the boiling mixed solution through the top of the condenser, remove the condenser, take out the flask, add in 20 mL of sodium chloride solution immediately, plug the flask, shake the flask violently for 15 sec, transfer the mixed solution into a 150 mL separatory funnel, rinse the flask with 10 mL of isooctane solution twice (5 mL each time), merge the washing liquid into the separatory funnel, let the funnel stand still to stratify the solution, abandon the subnatant water liquid, place the supernatant isooctane solution into a 25 mL flask, fix the volume using isooctane, add a proper amount of sodium sulfate anhydrous to absorb the trace amount of water in the solution, shake the flask well and put aside for subsequent use.
GC: PerKinElmer Clarus 680
Chromatographic column: Agilent J&W Scientific DB-WAX quartz capillary column ([…]×0.32 mm, 0.25 μm)
Injector temperature: 270° C.,
Precisely draw 1 μL standard solution and 1 μL test solution into the gas chromatograph and conduct the test.
Semen Ziziphi Spinosae oil sample 2 was taken and prepared into test solution according to the preparation method under the item “3. Preparation of test article solution”, and the resulting test solution was tested at different time points (0 h, 3 h, 6 h, 9 h and 12 h) according to the experimental conditions under the item “4. Gas chromatographic conditions”.

Where two headings read alike, the source gives them in different places.

Consider `O=P1(N(CCCl)CCCl)NCCCO1` (stereo not drawn) [Cyclophosphamide, cyclophosphamide], for which, in the data set with mouse bone marrow cell (Female mice), the “Micronucleus-Cell Rate” value is listed as 24.6 ± 6.3 ‰, the PCE/RBC came to 1.07 ± 0.13 and the “Number of Micronucleus-containing PCEs” value is on record as 123. In the data set on mouse bone marrow cell (Male mice), the “Micronucleus-Cell Rate” value is 27.6 ± 10.4 ‰, the PCE/RBC is recorded as 1.21 ± 0.14 and the “Number of Micronucleus-containing PCEs” value was determined as 138.
For `CN[C@@H](C)[C@H](O)c1ccccc1` [Ephedrine, ephedrine], the “Length of Sleep” value in the data set with Kunming mice (Ephedrine 4 mg/kg alone ig 7 days) stood at 60.8 ± 25.3 min.
For the molecule `CO[C@@]12[C@H](COC(N)=O)C3=C(C(=O)C(C)=C(N)C3=O)N1C[C@@H]1N[C@@H]12` [Mitomycin C, mitomycin C], the “Abnormal Rate” value in the data set on mouse sperm is recorded as 5.88 ± 0.97 %. Also, in the data set on mouse sperm (5000 sperm tested), the “Number of Aberrant Sperm: Amorphous” value was 119 n, the “Number of Aberrant Sperm: Banana” value was 23 n, the “Number of Aberrant Sperm: Big head” value turned out to be 5 n and the “Number of Aberrant Sperm: Folded” value is given as 24 n. In the data set with mouse sperm (5000 sperm tested), the “Number of Aberrant Sperm: Hook-free” value stood at 113 n, the “Number of Aberrant Sperm: Subtotal” value came out at 294 n and the “Number of Aberrant Sperm: Two-head/two-tail” value came out at 10 n.
For `CC/C=C\C/C=C\C/C=C\CCCCCCCC(=O)OC` [Peak 5], in data set [1], the “Relative peak area, RSD (%)” value is on record as 1.57%; the “Relative retention time, RSD (%)” value is listed as 0.04%; the “Relative peak area, Mean” value is recorded as 0.009; the “Relative retention time, Mean” value came to 1.1834. In data set [1], the “Relative peak area, standing time 0” value stood at 0.009; the “Relative retention time, standing time 0” value was 1.184; the “Relative peak area, standing time 3” value worked out at 0.009; the “Relative retention time, standing time 3” value is 1.184. For the same molecule, in data set [1], the “Relative peak area, standing time 6” value was determined as 0.009; the “Relative retention time, standing time 6” value was determined as 1.184; the “Relative peak area, standing time 9” value is 0.009; the “Relative retention time, standing time 9” value is reported as 1.183. Also, in data set [1], the “Relative peak area, standing time 12” value was 0.009 and the “Relative retention time, standing time 12” value stood at 1.183.
With `CCCCCCCCCCCCCCCCCCCC(=O)OC` [Peak 8], in data set [1], the “Relative peak area, RSD (%)” value stood at 1.16%; the “Relative retention time, RSD (%)” value came to 0.03%; the “Relative peak area, Mean” value is recorded as 0.023; the “Relative retention time, Mean” value is recorded as 1.3064. Moreover, in data set [1], the “Relative peak area, standing time 0” value is reported as 0.023; the “Relative retention time, standing time 0” value was 1.307; the “Relative peak area, standing time 3” value stood at 0.023; the “Relative retention time, standing time 3” value is 1.307. In addition, in data set [1], the “Relative peak area, standing time 6” value worked out at 0.023; the “Relative retention time, standing time 6” value is recorded as 1.306; the “Relative peak area, standing time 9” value came to 0.023; the “Relative retention time, standing time 9” value was determined as 1.306. Also, in data set [1], the “Relative peak area, standing time 12” value is 0.023 and the “Relative retention time, standing time 12” value is 1.306.
On to `CCCCCCCCCCCCCCCCCCCCCC(=O)OC` [Peak 11], for which, in data set [1], the “Relative peak area, RSD (%)” value came to 1.65%; the “Relative retention time, RSD (%)” value turned out to be 0.08%; the “Relative peak area, Mean” value is recorded as 0.020; the “Relative retention time, Mean” value is 1.6532. For the same molecule, in data set [1], the “Relative peak area, standing time 0” value amounted to 0.020; the “Relative retention time, standing time 0” value was 1.655; the “Relative peak area, standing time 3” value was found to be 0.021; the “Relative retention time, standing time 3” value came out at 1.654. Moreover, in data set [1], the “Relative peak area, standing time 6” value came to 0.021; the “Relative retention time, standing time 6” value amounted to 1.653; the “Relative peak area, standing time 9” value was found to be 0.021; the “Relative retention time, standing time 9” value is 1.651. For the same molecule, in data set [1], the “Relative peak area, standing time 12” value is given as 0.021 and the “Relative retention time, standing time 12” value is recorded as 1.653.
Consider `CCCCCCCC/C=C\CCCCCCCC(=O)OC` [Peak s], for which, in data set [1], the “Relative peak area, RSD (%)” value stood at 0.00%; the “Relative retention time, RSD (%)” value is listed as 0.00%; the “Relative peak area, Mean” value was 1.000; the “Relative retention time, Mean” value turned out to be 1.0000. For the same molecule, in data set [1], the “Relative peak area, standing time 0” value is recorded as 1.000; the “Relative retention time, standing time 0” value was 1.000; the “Relative peak area, standing time 3” value was 1.000; the “Relative retention time, standing time 3” value came out at 1.000. In data set [1], the “Relative peak area, standing time 6” value came out at 1.000; the “Relative retention time, standing time 6” value is recorded as 1.000; the “Relative peak area, standing time 9” value is on record as 1.000; the “Relative retention time, standing time 9” value amounted to 1.000. Further, in data set [1], the “Relative peak area, standing time 12” value is given as 1.000 and the “Relative retention time, standing time 12” value is 1.000.
With `C[C@]12C=CC(=O)C=C1CC[C@@H]1[C@@H]2C(=O)C[C@@]2(C)[C@H]1CC[C@]2(O)C(=O)CO` [Prednisone, prednisone], the “Length of Sleep” value in the data set on Kunming mice (Prednisone 1 mg/kg alone ig 7 days) came out at 68.4 ± 27.1 min.
